Test [1] concerns spontaneous onset of insulin-dependent diabetes mellitus. The test is described as follows: Onset of diabetes mellitus in NOD mice dosed at age 9 to 11 weeks (Example 25). The format is in vivo. The note with it: route not given, nine times, judged on week 22, saline 67. The source says: NOD mice purchased from Nippon Clair, Co. were naturally mated together. Among the off spring mice, a colony of NOD mice with a high frequency of the spontaneous onset of insulin-dependent diabetes mellitus was established. Female NOD mice from the colony were used for the present experiment. Chemical agents were orally or intraperitoneally administered to the NOD mice aged 9 to 11 weeks three times per week, in total nine times; and based on the test results of urine glucose, positive or negative, the onset of diabetes mellitus was followed once per week. Urine glucose was detected, using Uropaper (BM Test Glucose 5000, manufactured by Yamanouchi Pharmaceuticals, Co. Ltd.). The onset was judged on week 22; the doses were the same as in Example 24.

The subject of the next test is IL-12. In words: IL-12 production by MΦ induced by intraperitoneal injection of substances (Example 7). Format: in vivo, mouse. How it is done: The amount of IL-12 was determined through bioassay using cells of human T cell strain 2D6 (J. Leukocyte Biology, vol. 61, p. 346, 1997).
2D6 cells which had been incubated in an RPMI 1640 medium containing 500 pg/ml of recombinant human IL-12, 50 μM of 2-mercaptoethanol and 10% FCS (fetal calf serum) were moved to a tube, and centrifugally washed three times with the above-mentioned medium without IL-12 and cell density was adjusted to 1×10^5/ml. The cell suspension was added in an amount of 100 μl each to a 96-well flat bottom plate containing a sample serially diluted in advance with an RPMI 1640 medium containing 50 μM of 2-mercaptoethanol and 10% FCS in an amount of 100 μl each. Subsequently, the mixture was charged into a 5% […] incubator of 37° C., and incubated for 48 hours. For final 6 hours, ^3H-TdR was pulsed (a substance adjusted to 370 kBq/ml in an RPMI 1640 medium containing 50 μM of 2-mercaptoethanol and 10% FCS was added in an amount of 50 μl each). The cells a harvested, and the radioactivity was measured using a β counter (Matrix 96, supplied by Packard).
It was examined whether there is a difference in the IL-12 production between LNT-induced MΦ and LPS-induced MΦ. […] Next, the same analysis was conducted using MΦ induced by intraperitoneally injecting substances for changing the GSH content in cells.

The subject of test [2] is spontaneous onset of insulin-dependent diabetes mellitus. In words: Onset of diabetes mellitus in NOD mice dosed at age 3 to 6 weeks (Example 23). The note with it: intraperitoneal, three times per week, nine times. Format: in vivo. The procedure: NOD mice purchased from Nippon Clair, Co. were naturally mated together. Among the off spring mice, a colony of NOD mice with a high frequency of the spontaneous onset of insulin-dependent diabetes mellitus was established. Female NOD mice from the colony were used for the present experiment. […] Urine glucose was detected, using Uropaper (BM Test Glucose 5000, manufactured by Yamanouchi Pharmaceuticals, Co. Ltd.). Chemical agents were administered intraperitoneally, unless otherwise stated. […] (NAC)2 and (NAC-OMe)2 were at a single dose of 20 μg/animal; and NAC and GSHOEt were at a single dose of 2 μg/animal; and a single dose of lentinan was 0.1 mg/kg.

Test [3] shares this test system. The test is described as follows: Onset of diabetes mellitus in NOD mice dosed at age 3 to 6 and 9 to 11 weeks (Example 24). The format is in vivo. The note with it: route not given, 0.1 mg/kg; 15 times in total; judged on week 22; saline 60. The source says:
NOD mice purchased from Nippon Clair, Co. were naturally mated together. Among the off spring mice, a colony of NOD mice with a high frequency of the spontaneous onset of insulin-dependent diabetes mellitus was established. Female NOD mice from the colony were used for the present experiment. […] Urine glucose was detected, using Uropaper (BM Test Glucose 5000, manufactured by Yamanouchi Pharmaceuticals, Co. Ltd.). The onset was judged on week 22.

Test [4] concerns peritoneal exudate cells (macrophages). The test is described as follows: Induction of oxidative and reductive macrophages, monochlorobimane/ACAS (Example 1). Format: in vivo. The settings on record: LPS 20 μg or lentinan 100 μg three times every two days into the abdominal cavity of a mouse. The procedure:
These were clarified by adhering peritoneal exudate cells to the plastic surface, then reacting the same with 10 μM of monochlorobimane at 37° C. for 30 minutes and conducting analysis with Adherent Cell Analyzing System (ACAS). The increase in the amounts of oxidative macrophages can easily be measured visually from the fact that almost no reaction product is observed, that is, gray or blue image is obtained, and the increase in the amounts of reductive macrophages from the fact that the red or yellow image is obtained, respectively.

For test [5], the system named is adjuvant-induced arthritis. The test is described as follows: Adjuvant-induced arthritis (AA) in rats, joint swelling (Examples 18 and 19). Format: in vivo, Lewis rats. How it is done:
Adjuvant-induced arthritis was triggered in Lewis rats in a conventional manner; and the effects of chemical agents were examined in the animals. Adjuvant-induced arthritis is well known as an experimental arthritis inducible in rats [Taurog et al., Meth. Enzymol. 162, 339-355 (1988)]. […] An adjuvant is administered at 1 mg/0.1 ml per rate at a site of caudal root. The edema reaches its peak about 2 to 3 weeks after the administration of the adjuvant. The edema is triggered by inflammatory infiltration of monocytes. Swollen joints are measured with a micrometer every day; comparing the diameters of the joints prior to and after adjuvant administration and after initiation of the treatment with chemical agents with the diameters of the joints in the control group, the effects of the chemical agents were expressed as the ratio in % of joint swelling in the experimental groups to joint swelling in the control group. The effects were determined on day 15 after adjuvant administration. The chemical agents were given, starting the day next to the day of adjuvant administration, and every 3 days thereafter.
A single dose is 1 mg/kg for (NAC)2 and (NAC-OMe)2; 100 mg/kg for NAC; and 0.1 mg/kg for lentinan.
Adjuvant-induced arthritis was induced in Lewis rats in a conventional manner. In the same manner as in Example 11, the effects of chemical agents were examined in these rats. The conditions were the same as described above.

For the substance Lentinan [reference compound], the “Frequency (%) of onset of diabetes mellitus” value in test [1] was determined as 50%; in test [3] it was 0%. In addition, the IL-12 production in the test on IL-12 (MΦ induced by intraperitoneal injection of the substance, stimulation with LPS and IFNγ) is given as 1,312 pg/ml. For the same substance, in the test with IL-12 (baseline values of the DEM and IL-4 experiments), the “IL-12 production of substance-induced MΦ, without DEM or IL-4” value was determined as 828 pg/mL. Also, the “Frequency (%) of onset of diabetes mellitus, on age 18 weeks” value in test [2] (saline 50) worked out at 10%. In addition, in test [2] (saline 80), the “Frequency (%) of onset of diabetes mellitus, on age 22 weeks” value is listed as 20%. The “type of macrophages induced (GSH by monochlorobimane, ACAS)” value in test [4] was “reductive macrophages were induced”. Moreover, the “Ratio in % of joint swelling in experimental groups to joint swelling in control group” value in test [5] (Table 3, day 15 after adjuvant, every 3 days, single dose 1 mg/kg (NAC)2 and (NAC-OMe)2, 100 mg/kg NAC, 0.1 mg/kg lentinan) was 52%; in test [5] (Table 4, intravenous), 50%.

Source of the values: US7378387B2, “Method of suppressing immune response by reducing intracellular content of glutathione in macrophages and monocytes” (Ajinomoto Co., Inc., priority 1997, dated 2008).
